In ChEMBL document CHEMBL1126852 (J Med Chem, 1993):

Columns and labels:
[1] = target: T1, Dihydrofolate reductase (Rattus norvegicus, UniProt Q920D2)
T1 sequence (Q920D2 whole entry): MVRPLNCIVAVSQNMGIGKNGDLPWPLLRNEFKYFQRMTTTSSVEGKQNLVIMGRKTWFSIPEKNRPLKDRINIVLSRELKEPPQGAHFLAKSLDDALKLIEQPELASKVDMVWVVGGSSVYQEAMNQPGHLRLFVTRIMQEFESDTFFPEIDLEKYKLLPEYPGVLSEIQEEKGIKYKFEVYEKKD
Description: Inhibition of rat liver dihydrofolate reductase.

[2] = system: CCRF-CEM; experiment: Tested for cell growth inhibition in CCRF-CEM lymphoblasts; assay type: functional, cell-based; settings: Homo sapiens
[3] = target: Dihydrofolate reductase (Lactobacillus casei, UniProt P00381); experiment: Tested for inhibitory activity against dihydrofolate reductase in Lactobacillus casei; set-up: species or system Lacticaseibacillus casei
Chain of Dihydrofolate reductase (Lactobacillus casei, UniProt P00381) (P00381 whole entry): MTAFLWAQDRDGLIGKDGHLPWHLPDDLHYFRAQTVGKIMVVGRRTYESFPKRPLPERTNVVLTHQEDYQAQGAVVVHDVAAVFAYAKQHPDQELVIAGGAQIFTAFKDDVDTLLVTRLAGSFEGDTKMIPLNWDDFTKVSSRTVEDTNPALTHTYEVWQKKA

[4] = target: T2, Dihydrofolate reductase (Homo sapiens, UniProt P00374); experiment: Tested for inhibitory activity against dihydrofolate reductase in human
T2 sequence (P00374 whole entry): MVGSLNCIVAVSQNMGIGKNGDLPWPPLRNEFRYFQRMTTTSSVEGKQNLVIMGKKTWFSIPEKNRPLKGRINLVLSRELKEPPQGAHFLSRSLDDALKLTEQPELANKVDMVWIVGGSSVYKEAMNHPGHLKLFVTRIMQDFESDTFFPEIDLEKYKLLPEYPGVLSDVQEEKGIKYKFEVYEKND

[5] = target: T3, Dihydrofolate reductase (Pneumocystis carinii, UniProt P16184); experiment: Tested for inhibitory activity against dihydrofolate reductase in pneumocystis carinii
T3 sequence (P16184 whole entry): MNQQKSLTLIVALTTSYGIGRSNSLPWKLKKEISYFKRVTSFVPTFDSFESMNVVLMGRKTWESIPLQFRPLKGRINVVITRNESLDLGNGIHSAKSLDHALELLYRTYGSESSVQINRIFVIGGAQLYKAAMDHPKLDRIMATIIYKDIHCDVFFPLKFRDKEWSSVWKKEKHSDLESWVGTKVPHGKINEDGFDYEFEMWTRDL

[6] = target: T4, Bifunctional dihydrofolate reductase-thymidylate synthase (Toxoplasma gondii, UniProt Q07422); experiment: Tested for inhibitory activity against dihydrofolate reductase in Toxoplasma gondii
T4 sequence (Q07422 whole entry): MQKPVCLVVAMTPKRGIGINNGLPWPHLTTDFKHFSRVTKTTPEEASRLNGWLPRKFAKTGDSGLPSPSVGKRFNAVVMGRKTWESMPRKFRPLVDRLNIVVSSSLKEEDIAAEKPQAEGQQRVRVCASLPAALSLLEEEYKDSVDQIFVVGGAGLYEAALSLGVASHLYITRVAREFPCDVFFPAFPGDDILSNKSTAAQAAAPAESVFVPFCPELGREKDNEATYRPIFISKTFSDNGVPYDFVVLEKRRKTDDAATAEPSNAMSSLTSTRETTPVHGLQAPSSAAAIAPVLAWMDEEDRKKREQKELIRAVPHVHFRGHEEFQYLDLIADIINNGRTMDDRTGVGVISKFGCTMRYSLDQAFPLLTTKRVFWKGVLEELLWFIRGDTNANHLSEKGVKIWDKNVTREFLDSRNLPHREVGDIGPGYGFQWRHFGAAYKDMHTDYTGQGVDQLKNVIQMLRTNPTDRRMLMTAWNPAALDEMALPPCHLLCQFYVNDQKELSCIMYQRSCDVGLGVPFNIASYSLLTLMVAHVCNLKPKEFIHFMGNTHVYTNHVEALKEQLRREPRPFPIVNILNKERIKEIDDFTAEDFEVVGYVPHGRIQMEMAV

SMILES | IC50 [1] | IC50 [4] | further results
COc1ccc(OC)c(CCCc2csc3nc(N)nc(N)c23)c1 | 26 µM | – | –
Cc1c(-c2ccccc2)sc2nc(N)nc(N)c12 | – | – | IC50 [2]: 14 µM
Nc1nc(N)c2c3c(sc2n1)CCCCCCCCCC3 | 9.3 µM | – | IC50 [2]: 3.7 µM; IC50 [3]: 12 µM
COc1ccc(OC)c(Cc2sc3nc(N)nc(N)c3c2C)c1 | 0.4 µM | 0.73 µM | –
COc1ccc(OC)c(CCc2csc3nc(N)nc(N)c23)c1 | 3.1 µM | – | –
Cc1sc2nc(N)nc(N)c2c1-c1ccc(Cl)cc1 | > 100 µM | – | IC50 [3]: > 50 µM
Cc1c(-c2ccc(Cl)c(Cl)c2)sc2nc(N)nc(N)c12 | 4.6 µM | – | IC50 [3]: 2 µM
Nc1nc(N)c2c3c(sc2n1)CCCCCC3 | – | – | IC50 [2]: 12 µM
Nc1nc(N)c2c3c(sc2n1)CN(Cc1ccccc1)CC3 | 0.57 µM | – | IC50 [5]: 5.2 µM; IC50 [6]: 0.85 µM
Cc1c(Cc2ccccc2)sc2nc(N)nc(N)c12 | 14 µM | – | IC50 [2]: 15 µM; IC50 [3]: 1.3 µM
Cc1sc2nc(N)nc(N)c2c1Cc1ccccc1 | > 37 µM | – | IC50 [3]: > 50 µM
COc1cc(Cc2sc3nc(N)nc(N)c3c2C)cc(OC)c1OC | 51 µM | > 10 µM | –
COc1ccc(OC)c(CCc2sc3nc(N)nc(N)c3c2C)c1 | 5.9 µM | > 10 µM | –
COc1cc(CCc2sc3nc(N)nc(N)c3c2C)cc(OC)c1OC | 25 µM | > 10 µM | –
Nc1nc(N)c2c3c(sc2n1)CCCC3 | 3.9 µM | – | –
COc1ccc(OC)c(-c2sc3nc(N)nc(N)c3c2C)c1 | 0.37 µM | 0.75 µM | –
Nc1nc(N)c2c3c(sc2n1)CCCCC3 | 1.3 µM | – | –
COc1cc(-c2sc3nc(N)nc(N)c3c2C)cc(OC)c1OC | 1.8 µM | > 10 µM | –
